The source of these data is US20250100977A1, “MERCAPTOPYRIMIDINE COMPOUNDS THAT INHIBIT NONHOMOLOGOUS END JOINING AND METHODS THEREOF” (INDIAN INSTITUTE OF SCIENCE, priority 2021, published 2025).

In assay [1] the test system is Nalm6. As to the kind of experiment: Cytotoxicity (viable cells) in Nalm6. In kind it is cell-based. As to conditions: Homo sapiens, NALM-6; Table 1; 48 h; read-out: IC50 in cancer cell lines, Nalm6. As for the experimental part: (§1) The compounds of the present invention were screened initially in leukemic and cervical cancer cell lines (Table 1). […] In cervical cancer cell line HeLa, IC50 was 5 and 2 μM, respectively for SCR116 and SCR132 (FIG. 5A-B).
(§2) Ligase IV specificity of the compounds of the present invention inside the cells were also determined using Ligase IV knock out (KO) cell line N114 compared to the wild type Nalm6 (Table 2, FIGS. 5C, D, E and F). […] Table 1 showing IC50 of SCR7 derivatives in cancer cell lines Nalm6 and HeLa. IC50 was calculated using GraphPad Prism software from the percentage of viable cells following treatment with the compounds at 48 h. Table 2 showing IC50 of SCR116 and SCR132 in a panel of 16 cancer cell lines.

Assay [2] deals with HeLa. As to the kind of experiment: Cytotoxicity (viable cells) in HeLa. The assay is classed as cell-based. The note with it: Homo sapiens, HeLa, 48 h, Table 1; 48 h; read-out: IC50 in cancer cell lines, HeLa. The protocol: as §1, §2
Assay [3] has as its system rat testicular extracts. As to the kind of experiment: Inhibition of end joining of rat testicular extracts (NHEJ). The assay is classed as biochemical. As to conditions: 500 μM; rat testicular extract. As for the experimental part: The compounds of the present invention were tested for their effects on inhibition of DNA end joining reactions using rat tissue extracts and purified DNA Ligase IV/XRCC4. Rat testicular extracts were prepared from testes of 4-6 week old male Wistar rats, Rattus norvegicus using ammonium sulphate precipitation method. To determine end joining of cell-free extracts, radiolabeled double-stranded (ds) oligomeric DNA substrate was incubated with rat testicular extract at 25° C. in suitable NHEJ buffer. Extracts were incubated for 30 min with the compounds of Formula I (01-41, 500 μM) as prepared in Example 1, and then radioactive DNA substrate was added to the reaction mixture and incubated for 1 h at 25° C. Reactions were stopped using EDTA, and products were purified using phenol: chloroform extraction and loaded on denaturing polyacrylamide gel. […] Joining efficiency was calculated using the intensity of product bands (150 bp or higher) in individual lanes in Multi Gauge software as compared to control (lanes 2,3). Lane 1 denotes radioactive substrate in absence of protein or inhibitor, while M denotes radiolabeled 50 bp DNA ladder.
(§3) Effects of these compounds on NHEJ and Ligase IV mediated joining were evaluated (FIG. 4A-K). The reactions were terminated by EDTA (10 mM), products were purified using phenol/chloroform, precipitated with chilled ethanol and glycogen, and resolved on 8% denaturing PAGE. The gel was dried, exposed, and signal was detected using phosphor Imager FLA9000 (Fuji, Japan), and quantified in MultiGauge software expressed as Photo Stimulated Luminescence Units (PSLU). Inhibition of end joining was reported at 200 μM and 100 μM, respectively for SCR116 and SCR132 (FIGS. 4A, B, C and D), with >50% inhibition at 200 and 100 μM concentrations, respectively. […] FIG. 4K depict the purification profile of Ligase IV and XRCC4. Further FIGS. 4L-M represent inhibition of end joining catalysed by (FIG. 4L) purified Ligase III/XRCCI in presence of SCR116 and SCR132 (50, 100, 200, 500, 1000 μM) and (FIG. 4M) by purified Ligase I in presence of increasing concentrations of SCR116 and SCR132 (10, 50, 100, 200, 500, 1000 μM).

Assay [4] has as its target T1, DNA Ligase IV/XRCC4 (Homo sapiens, UniProt P49917).
T1 construct: made in house; host or cells: bacteria
As to the kind of experiment: Inhibition of end joining by purified DNA Ligase IV/XRCC4. The assay is classed as biochemical. The note with it: 200 μM; purified Ligase IV/XRCC4. As for the experimental part: The compounds of Formula I were evaluated for their specific inhibition activity towards enzyme DNA Ligase IV. DNA Ligase IV/XRCC4 was purified from bacteria using Ni-NTA column (FIG. 2A), and used for evaluation of inhibition of end joining of the compounds (01-41) at 200 μM (FIGS. 2B, C and D). The compounds were incubated with purified Ligase IV/XRCC4 in suitable NHEJ buffer at 25° C. for 30 min, followed by addition of radiolabeled DNA, and further incubation for 1 h at 25° C. Products were purified using phenol: chloroform and run on denaturing PAGE.
as §3

Assay [5] deals with Ligase IV knock out (KO) cell line N114. As to conditions: Vartak et al. 2018; cited from earlier work.

T1 sequence (P49917 whole entry): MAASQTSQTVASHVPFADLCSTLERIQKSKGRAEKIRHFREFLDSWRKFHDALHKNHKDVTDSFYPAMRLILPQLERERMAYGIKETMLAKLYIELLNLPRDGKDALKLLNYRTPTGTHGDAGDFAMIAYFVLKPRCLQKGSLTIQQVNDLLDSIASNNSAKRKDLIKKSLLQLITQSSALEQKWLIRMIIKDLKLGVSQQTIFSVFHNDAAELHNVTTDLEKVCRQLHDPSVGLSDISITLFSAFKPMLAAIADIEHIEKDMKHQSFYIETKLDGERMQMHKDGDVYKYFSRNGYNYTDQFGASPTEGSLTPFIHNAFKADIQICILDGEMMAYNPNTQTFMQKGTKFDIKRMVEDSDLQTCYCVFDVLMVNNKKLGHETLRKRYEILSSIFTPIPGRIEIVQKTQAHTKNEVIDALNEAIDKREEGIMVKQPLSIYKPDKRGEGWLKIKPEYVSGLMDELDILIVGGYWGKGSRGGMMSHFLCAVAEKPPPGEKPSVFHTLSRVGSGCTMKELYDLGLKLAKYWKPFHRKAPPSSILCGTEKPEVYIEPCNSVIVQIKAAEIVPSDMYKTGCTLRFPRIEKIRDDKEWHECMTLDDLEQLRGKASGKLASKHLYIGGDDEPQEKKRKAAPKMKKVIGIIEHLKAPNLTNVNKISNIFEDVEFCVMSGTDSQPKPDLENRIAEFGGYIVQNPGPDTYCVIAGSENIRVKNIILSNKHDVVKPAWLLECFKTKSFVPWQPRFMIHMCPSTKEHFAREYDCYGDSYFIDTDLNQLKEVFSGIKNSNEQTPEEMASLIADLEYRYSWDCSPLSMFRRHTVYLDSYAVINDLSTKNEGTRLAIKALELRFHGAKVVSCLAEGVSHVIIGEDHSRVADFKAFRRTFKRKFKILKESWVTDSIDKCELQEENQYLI
T1 sequence (Q13426 whole entry partner): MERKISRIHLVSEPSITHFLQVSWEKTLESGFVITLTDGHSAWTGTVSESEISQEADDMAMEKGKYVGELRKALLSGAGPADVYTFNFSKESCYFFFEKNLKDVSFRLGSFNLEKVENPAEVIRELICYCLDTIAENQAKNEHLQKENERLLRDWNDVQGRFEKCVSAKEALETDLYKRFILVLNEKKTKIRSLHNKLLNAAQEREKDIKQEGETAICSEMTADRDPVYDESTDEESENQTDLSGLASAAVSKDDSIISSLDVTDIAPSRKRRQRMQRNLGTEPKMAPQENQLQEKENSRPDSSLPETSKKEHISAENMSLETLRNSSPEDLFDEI

A word on the IC50: it is the concentration needed to halve the response being measured. For `Nc1nc(S)nc(O)c1/N=C/c1cccs1` [Compound 01, (E)-6-amino-2-mercapto-5-((thiophen-2-ylmethylene)amino)pyrimidin-4-ol], the IC50 amounted to 23.3 µM in assay [1] and 17.7 µM in assay [2].

As for `Nc1nc(S)nc(O)c1/N=C/c1ncc[nH]1` [Compound 04, (E)-5-(((1H-imidazol-2-yl)methylene)amino)-6-amino-2-mercaptopyrimidin-4-ol], the IC50 was 29.7 µM in assay [1] and 95 µM in assay [2].

On to `Nc1nc(S)nc(O)c1/N=C/c1cncc2ccccc12` [Compound 05, 6-amino-5-{[(E)-isoquinolin-4-ylmethylidene]amino}-2-mercaptopyrimidin-4-ol], for which the IC50 amounted to 18.2 µM in assay [1] and 11.9 µM in assay [2].

For the compound `Nc1nc(S)nc(O)c1/N=C/c1ccccc1O` [Compound 06, (E)-6-amino-5-((2-hydroxybenzylidene)amino)-2-mercaptopyrimidin-4-ol], in assay [3], the “Inhibition of end joining (no joined product observed)” value is “showed inhibition of end joining”. Besides, the half-inhibitory concentration (IC50) worked out at 19.4 µM in assay [1] and 17.5 µM in assay [2].

Regarding `Nc1nc(S)nc(O)c1/N=C/c1cccnc1` [Compound 07, (E)-6-amino-2-mercapto-5-((pyridin-3-ylmethylene)amino)pyrimidin-4-ol], the figures for the IC50 in assay [1] and in assay [2] were 26.6 µM and 28.2 µM, respectively.

For the compound `Nc1nc(S)nc(O)c1/N=C/c1ccc[nH]1` [Compound 12, (E)-5-(((1H-pyrrol-2-yl)methylene)amino)-6-amino-2-mercaptopyrimidin-4-ol], in assay [3], the “Inhibition of end joining (no joined product observed)” value was “showed inhibition of end joining”. For the same compound, the “Inhibition of end joining compared with control” value in assay [4] was “significant inhibition of end joining”. Also, the IC50 in assay [1] amounted to 29.5 µM; in assay [2], 48.5 µM.

Turning to `Nc1nc(S)nc(O)c1/N=C/c1nccs1` [Compound 13, (E)-6-amino-2-mercapto-5-((thiazol-2-ylmethylene)amino)pyrimidin-4-ol], the IC50 in assay [1] stood at 25.6 µM; in assay [2], 133 µM.

Regarding `CC(=O)OCc1ccc(/C=N/c2c(N)nc(S)nc2O)o1` [Compound 15, (E)-(5-(((4-amino-6-hydroxy-2-mercaptopyrimidin-5-yl)imino)methyl)furan-2-yl)methylacetate], the “Inhibition of end joining (no joined product observed)” value in assay [3] is recorded as “showed inhibition of end joining”. Moreover, in assay [4], the “Inhibition of end joining compared with control” value is given as “significant inhibition of end joining”. Also, the IC50 is 29.8 µM in assay [1] and 79.8 µM in assay [2].

On to `Nc1nc(S)nc(O)c1/N=C/c1cccc2ccccc12` [Compound 17, (E)-6-amino-2-mercapto-5-((naphthalen-1-ylmethylene)amino)pyrimidin-4-ol], for which the half-inhibitory concentration (IC50) stood at 29.7 µM in assay [1] and 29.5 µM in assay [2].

In the case of `Nc1nc(S)nc(O)c1/N=C/c1ccnc(Cl)c1` [Compound 31, (E)-6-amino-5-(((2-chloropyridin-4-yl)methylene)amino)-2-mercaptopyrimidin-4-ol], in assay [3], the “Inhibition of end joining (no joined product observed)” value was “showed inhibition of end joining”. Besides, the IC50 turned out to be 4.04 µM in assay [1] and 6.95 µM in assay [2].

For the compound `Nc1nc(S)nc(O)c1/N=C/c1ccncc1F` [Compound 33, (E)-6-amino-5-(((3-fluoropyridin-4-yl)methylene)amino)-2-mercaptopyrimidin-4-ol], the concentration for half-maximal inhibition (IC50) in assay [1] stood at 2.24 µM; in assay [2] it was 20.8 µM.

As for `N#Cc1ccc(/C=N/c2c(N)nc(S)nc2O)s1` [Compound 34, (E)-5-(((4-amino-6-hydroxy-2-mercaptopyrimidin-5-yl)imino)methyl)thiophene-2-carbonitrile], the IC50 in assay [1] came to 0.95 µM; in assay [2] it was 41.4 µM.

Regarding `Nc1nc(S)nc(O)c1/N=C/c1ccc(Br)s1` [Compound 35, (E)-6-amino-5-(((5-bromothiophen-2-yl)methylene)amino)-2-mercaptopyrimidin-4-ol], the concentration for half-maximal inhibition (IC50) worked out at 6.87 µM in assay [1] and 18.4 µM in assay [2].

For the compound `N#Cc1ccc(/C=N/c2c(N)nc(S)nc2O)cc1` [Compound 36, (E)-4-(((4-amino-6-hydroxy-2-mercaptopyrimidin-5yl)imino)methyl)benzonitrile], the 50% inhibitory concentration (IC50) in assay [1] was determined as 2.88 µM; in assay [2], 27.2 µM.

`CN(C)c1ccc(/C=N/c2c(N)nc(S)nc2O)cc1` [Compound 37, (E)-6-amino-5-((4-(dimethylamino)benzylidene)amino)-2-mercaptopyrimidin-4-ol]: the IC50 amounted to 15.2 µM in assay [1] and 47.8 µM in assay [2].

On to `Nc1nc(S)nc(O)c1/N=C/c1ccc2ccccc2n1` [Compound 38, (E)-6-amino-2-mercapto-5-((quinolin-2-ylmethylene)amino)pyrimidin-4-ol], for which the values for the IC50 in assay [1] and in assay [2] were 25.5 µM and 45.8 µM, respectively.

For the compound `COc1cc(/C=N/c2c(N)nc(S)nc2O)ccc1O` [Compound 39, (E)-6-amino-5-((4-hydroxy-3-methoxybenzylidene)amino)-2-mercaptopyrimidin-4-ol], the IC50 in assay [1] came to 33.6 µM; in assay [2], 43.2 µM.

`Nc1nc(S)nc(O)c1/N=C/c1cc(Br)ccc1O` [Compound 40, (E)-6-amino-5-((5-bromo-2-hydroxybenzylidene)amino)-2-mercaptopyrimidin-4-ol]: the “Inhibition of end joining (no joined product observed)” value in assay [3] is given as “showed inhibition of end joining”. Further, the results for the IC50 in assay [1] and in assay [2] were 12.6 µM and 18.3 µM, respectively.

`Nc1nc(S)nc(O)c1/N=C/c1cc(F)c(O)c(F)c1` [Compound 41, (E)-6-amino-5-((3,5-difluoro-4-hydroxybenzylidene)amino)-2-mercaptopyrimidin-4-ol]: the IC50 is 28.8 µM in assay [1] and 29.2 µM in assay [2].

Regarding `O=c1[nH]c(=S)[nH]c2nc(-c3ccccc3)c(-c3ccccc3)nc12` [SCR7-pyrazine], the “Effect in KO in absence of Ligase IV” value in assay [5] is “nonspecific effects”.
